For one experiment, the target named is MET (human) (Homo sapiens, UniProt P08581). Description: MET (human) AlphaScreen kinase assay, Km of ATP. The format is biochemical. As to conditions: AlphaScreen, Km of ATP; read-out: Met biochemical IC50. The gist of the method:
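Human MET at lot-optimised concentration in 50 mM Tris pH 7.4 buffer with 1 mM DTT, compound at 1% DMSO final; enzyme starts the reaction, 60 min at RT.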
For orientation: In Alpha technology, singlet oxygen from a donor bead excites a nearby acceptor bead.

In the next experiment the target is RON (human) (Homo sapiens, UniProt Q04912). The experiment in a line: RON (human) AlphaScreen kinase assay, Km of ATP. The format is biochemical. Conditions: AlphaScreen, Km of ATP; read-out: RON biochemical IC50. An outline of the steps: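 Detection used PT66 AlphaScreen beads added in Tris pH 7.5/NaCl/EDTA/BSA buffer, read after 1 h incubation. Vehicle-only DMSO wells served as controls.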
RON (human), sequence (Q04912 25-1400): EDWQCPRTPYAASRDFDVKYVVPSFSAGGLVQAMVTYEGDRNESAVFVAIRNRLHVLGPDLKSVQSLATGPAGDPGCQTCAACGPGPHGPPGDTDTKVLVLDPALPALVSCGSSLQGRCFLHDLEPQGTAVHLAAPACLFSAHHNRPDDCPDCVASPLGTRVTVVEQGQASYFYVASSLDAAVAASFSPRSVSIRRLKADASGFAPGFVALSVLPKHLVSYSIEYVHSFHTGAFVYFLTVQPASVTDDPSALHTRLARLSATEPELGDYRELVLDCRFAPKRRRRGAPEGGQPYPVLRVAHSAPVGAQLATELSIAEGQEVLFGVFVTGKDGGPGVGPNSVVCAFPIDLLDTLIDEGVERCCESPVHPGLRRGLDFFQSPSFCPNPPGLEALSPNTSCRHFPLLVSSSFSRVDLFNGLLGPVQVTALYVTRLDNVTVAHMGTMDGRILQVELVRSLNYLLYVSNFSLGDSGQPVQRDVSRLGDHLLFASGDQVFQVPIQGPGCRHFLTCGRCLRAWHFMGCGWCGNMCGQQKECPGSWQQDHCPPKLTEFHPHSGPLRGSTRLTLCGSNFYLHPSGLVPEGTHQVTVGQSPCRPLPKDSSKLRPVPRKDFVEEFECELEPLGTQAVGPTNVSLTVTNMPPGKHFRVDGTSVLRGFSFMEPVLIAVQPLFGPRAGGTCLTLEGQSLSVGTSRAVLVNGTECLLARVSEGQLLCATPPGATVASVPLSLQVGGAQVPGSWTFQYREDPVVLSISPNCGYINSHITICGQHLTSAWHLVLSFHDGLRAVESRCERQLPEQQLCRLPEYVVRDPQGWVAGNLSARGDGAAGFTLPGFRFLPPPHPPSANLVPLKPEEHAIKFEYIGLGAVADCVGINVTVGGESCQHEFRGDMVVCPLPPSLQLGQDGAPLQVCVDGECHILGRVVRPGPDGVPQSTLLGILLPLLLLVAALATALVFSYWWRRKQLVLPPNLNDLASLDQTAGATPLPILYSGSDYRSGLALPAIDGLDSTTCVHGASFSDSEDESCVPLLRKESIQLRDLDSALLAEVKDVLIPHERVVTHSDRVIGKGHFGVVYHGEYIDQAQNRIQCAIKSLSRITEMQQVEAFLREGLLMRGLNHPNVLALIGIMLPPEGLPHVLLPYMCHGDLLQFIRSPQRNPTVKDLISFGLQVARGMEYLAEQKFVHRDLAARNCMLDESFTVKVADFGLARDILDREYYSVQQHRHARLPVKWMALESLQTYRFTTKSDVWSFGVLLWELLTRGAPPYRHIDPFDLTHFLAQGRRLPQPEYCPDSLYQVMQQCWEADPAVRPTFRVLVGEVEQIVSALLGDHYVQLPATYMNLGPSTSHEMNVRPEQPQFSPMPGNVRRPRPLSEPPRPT

Broadly, the IC50 is the concentration that inhibits the measured activity by half.

MET (human), sequence (P08581 25-1390): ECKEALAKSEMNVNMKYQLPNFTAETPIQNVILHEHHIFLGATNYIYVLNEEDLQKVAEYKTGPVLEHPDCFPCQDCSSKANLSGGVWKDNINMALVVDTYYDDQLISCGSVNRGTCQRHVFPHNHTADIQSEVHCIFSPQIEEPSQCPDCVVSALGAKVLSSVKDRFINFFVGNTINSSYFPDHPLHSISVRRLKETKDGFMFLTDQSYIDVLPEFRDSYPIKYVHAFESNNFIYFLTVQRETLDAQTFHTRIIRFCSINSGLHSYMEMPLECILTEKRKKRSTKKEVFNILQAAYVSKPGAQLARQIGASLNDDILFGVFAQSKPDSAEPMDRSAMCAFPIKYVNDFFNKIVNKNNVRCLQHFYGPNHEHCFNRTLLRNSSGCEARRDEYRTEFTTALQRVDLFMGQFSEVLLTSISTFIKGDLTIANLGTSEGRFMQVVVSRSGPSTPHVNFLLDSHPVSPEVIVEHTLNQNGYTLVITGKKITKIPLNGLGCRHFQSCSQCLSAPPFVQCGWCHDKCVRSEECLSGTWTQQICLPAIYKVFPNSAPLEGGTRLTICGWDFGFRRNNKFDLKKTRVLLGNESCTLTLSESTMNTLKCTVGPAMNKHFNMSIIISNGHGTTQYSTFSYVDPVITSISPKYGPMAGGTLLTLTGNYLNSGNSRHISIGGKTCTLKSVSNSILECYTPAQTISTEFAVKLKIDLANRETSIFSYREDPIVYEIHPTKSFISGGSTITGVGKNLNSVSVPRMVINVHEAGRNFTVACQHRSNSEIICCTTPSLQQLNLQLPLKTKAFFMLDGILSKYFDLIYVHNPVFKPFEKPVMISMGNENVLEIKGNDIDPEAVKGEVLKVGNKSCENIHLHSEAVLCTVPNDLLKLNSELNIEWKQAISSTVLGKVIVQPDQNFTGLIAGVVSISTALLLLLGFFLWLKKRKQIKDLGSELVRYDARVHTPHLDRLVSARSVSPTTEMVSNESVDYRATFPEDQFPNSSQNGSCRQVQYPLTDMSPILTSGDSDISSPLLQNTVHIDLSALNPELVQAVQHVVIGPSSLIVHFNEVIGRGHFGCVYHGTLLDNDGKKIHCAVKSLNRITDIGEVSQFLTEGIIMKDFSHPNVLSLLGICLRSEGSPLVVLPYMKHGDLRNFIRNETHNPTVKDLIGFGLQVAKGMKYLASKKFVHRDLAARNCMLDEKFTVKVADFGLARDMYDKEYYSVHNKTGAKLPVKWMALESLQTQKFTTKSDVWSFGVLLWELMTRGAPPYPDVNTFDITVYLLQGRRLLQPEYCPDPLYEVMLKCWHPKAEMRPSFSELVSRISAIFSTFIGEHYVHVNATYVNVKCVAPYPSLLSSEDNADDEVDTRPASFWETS

As to `C[C@@H](Oc1c(N)ncc2c(C3=CCN(C(=O)N4CCN(C(C)(C)C)CC4)CC3)coc12)c1c(Cl)ccc(F)c1Cl` [Example 29, (4-{6-Amino-7-[(R)-1-(2,6-dichloro-3-fluorophenyl)-ethoxy]-furo[3,2-c]pyridin-3-yl}-3,6-dihydro-2H-pyridin-1-yl)-(4-tert-butylpiperazin-1-yl)-methanone], the IC50 on MET (human) and at RON (human) was less than 500 nM in each case.
As to `C[C@@H](Oc1c(N)ncc2ccoc12)c1nnc2ccc(-c3ccccc3)nn12` [Example 471, 7-[(1R)-1-(6-phenyl[1,2,4]triazolo[4,3-b]pyridazin-3-yl)ethoxy]furo[3,2-c]pyridin-6-amine], the IC50 was 5000 to 20000 nM at MET (human) and more than 20000 nM on RON (human).
For `C[C@@H](Oc1c(N)ncc2c(-c3ccnc4ccccc34)coc12)c1c(Cl)ccc(F)c1Cl` [Example 92, 7-[(R)-1-(2,6-Dichloro-3-fluorophenyl)ethoxy]-3-quinolin-4-ylfuro[3,2-c]pyridin-6-ylamine], in that order: 500 to 5000 nM and 5000 to 20000 nM.
For `C[C@H](Oc1c(N)ncc2ccoc12)c1nnc2ccc(-c3ccccc3)nn12` [Example 475, 7-[(1S)-1-(6-phenyl[1,2,4]triazolo[4,3-b]pyridazin-3-yl)ethoxy]furo[3,2-c]pyridin-6-amine], in that order: 5000 to 20000 nM and more than 20000 nM.
With `C[C@@H](Oc1c(N)ncc2c(-c3ccc(C(N)=O)cc3)coc12)c1c(Cl)ccc(F)c1Cl` [Example 63, 4-{6-Amino-7-[(R)-1-(2,6-dichloro-3-fluorophenyl)ethoxy]-furo[3,2-c]pyridin-3-yl}benzamide], the IC50 on MET (human) and at RON (human) was 500 to 5000 nM in each case.
As for `C[C@@H](Oc1c(N)ncc2c(-c3ccc(CO)nc3)coc12)c1c(Cl)ccc(F)c1Cl` [Example 118, (5-{6-Amino-7-[(R)-1-(2,6-dichloro-3-fluorophenyl)ethoxy]furo[3,2-c]pyridin-3-yl}pyridin-2-yl)methanol], the IC50 at MET (human) was less than 500 nM; on RON (human) it was 500 to 5000 nM.
For `CNS(=O)(=O)c1cccc(-c2coc3c(O[C@H](C)c4c(Cl)ccc(F)c4Cl)c(N)ncc23)c1` [Example 83, 3-{6-Amino-7-[(R)-1-(2,6-dichloro-3-fluorophenyl)ethoxy]-furo[3,2-c]pyridin-3-yl}-N-methylbenzenesulfonamide], in that order: 500 to 5000 nM and 500 to 5000 nM.
For `CCCN1CC=C(c2coc3c(O[C@H](C)c4c(Cl)ccc(F)c4Cl)c(N)ncc23)CC1` [Example 42, 7-[(R)-1-(2,6-Dichloro-3-fluorophenyl)-ethoxy]-3-(1-propyl-1,2,3,6-tetrahydropyridin-4-yl)-furo[3,2-c]pyridin-6-ylamine], in that order: less than 500 nM and less than 500 nM.
For `C[C@@H](Oc1c(N)ncc2c(C3=CCN(C(=O)CN(C)C)CC3)coc12)c1c(Cl)ccc(F)c1Cl` [Example 9, 1-(4-{6-Amino-7-[(R)-1-(2,6-dichloro-3-fluorophenyl)ethoxy]-furo[3,2-c]pyridin-3-yl}-3,6-dihydro-2H-pyridin-1-yl)-2-dimethylaminoethanone], in that order: less than 500 nM and less than 500 nM.
`C[C@@H](Oc1c(N)ncc2c(C3=CCN(C(=O)CN4CCCC4)CC3)coc12)c1c(Cl)ccc(F)c1Cl` [Example 13, 1-(4-{6-Amino-7-[(R)-1-(2,6-dichloro-3-fluorophenyl)-ethoxy]-furo[3,2-c]pyridin-3-yl}-3,6-dihydro-2H-pyridin-1-yl)-2-pyrrolidin-1-ylethanone]: the IC50 at MET (human) and at RON (human) was less than 500 nM throughout.
Consider `C[C@@H](Oc1c(N)ncc2c(-c3ccc(C(=O)N4CCN(CCOCCO)CC4)cc3)coc12)c1c(Cl)ccc(F)c1Cl` [Example 301, (4-{6-Amino-7-[(R)-1-(2,6-dichloro-3-fluoro-phenyl)ethoxy]furo[3,2-c]pyridin-3-yl}phenyl)-{4-[2-(2-hydroxyethoxy)ethyl]piperazin-1-yl}methanone], for which the IC50 at MET (human) and at RON (human) was 500 to 5000 nM in each case.
Turning to `Cc1cccc(C)c1C(C)Oc1c(N)ncc2c(-c3cnn(C4CCNCC4)c3)coc12` (stereo not shown) [Example 402, 7-[1-(2,6-Dimethylphenyl)ethoxy]-3-(1-piperidin-4-yl-1H-pyrazol-4-yl)furo[3,2-c]pyridin-6-ylamine], the IC50 on MET (human) and at RON (human) was 500 to 5000 nM throughout.
With `CC(Oc1c(N)ncc2c(-c3cnn(C4CCNCC4)c3)coc12)c1ccc(C#N)cc1` (stereo not shown) [Example 394, 4-{1-[6-Amino-3-(1-piperidin-4-yl-1H-pyrazol-4-yl)furo[3,2-c]pyridin-7-yloxy]ethyl}benzonitrile], the IC50 was less than 500 nM at MET (human) and 500 to 5000 nM on RON (human).
The corresponding values for `C[C@@H](Oc1c(N)ncc2c(C3=CCN(C(=O)Nc4ccccc4F)CC3)coc12)c1c(Cl)ccc(F)c1Cl` [Example 150, 4-{6-Amino-7-[(1R)-1-(2,6-dichloro-3-fluorophenyl)ethoxy]furo[3,2-c]pyridin-3-yl}-N-(2-fluorophenyl)-3,6-dihydropyridine-1(2H)-carboxamide] are 500 to 5000 nM and 500 to 5000 nM.
For `C[C@@H](Oc1c(N)ncc2c(-c3ccc(CN4CCOCC4)cc3)coc12)c1c(Cl)ccc(F)c1Cl` [Example 85, 7-[(R)-1-(2,6-Dichloro-3-fluorophenyl)ethoxy]-3-(4-morpholin-4-ylmethylphenyl)furo[3,2-c]pyridin-6-ylamine], in that order: 500 to 5000 nM and 500 to 5000 nM.
Turning to `CC(Oc1c(N)ncc2c(-c3cnn(C4CCNCC4)c3)coc12)c1c(Cl)c(F)cc(OCCCN)c1Cl` (stereo not shown) [Example 155, 7-{1-[3-(3-Aminopropoxy)-2,6-dichloro-5-fluorophenyl]ethoxy}-3-[1-(piperidin-4-yl)-1H-pyrazol-4-yl]furo[3,2-c]pyridin-6-amine], the IC50 on MET (human) and on RON (human) was less than 500 nM each time.
For the compound `C[C@@H](Oc1c(N)ncc2c(C3=CCN(C(=O)C(O)C(F)(F)F)CC3)coc12)c1c(Cl)ccc(F)c1Cl` (stereo partly drawn) [Example 270, 1-[4-{6-Amino-7-[(1R)-1-(2,6-dichloro-3-fluorophenyl)ethoxy]furo[3,2-c]pyridin-3-yl}-3,6-dihydropyridin-1(2H)-yl]-3,3,3-trifluoro-2-hydroxypropan-1-one], the values for the IC50 at MET (human) and on RON (human) were less than 500 nM and 500 to 5000 nM, respectively.
For `C[C@@H](Oc1c(N)ncc2c(-c3cnn(C4CCNCC4)c3)coc12)c1cccc(F)c1` [Example 337, 7-[(R)-1-(3-fluorophenyl)ethoxy]-3-(1-piperidin-4-yl-1H-pyrazol-4-yl)-furo[3,2-c]pyridin-6-ylamine], in that order: less than 500 nM and 500 to 5000 nM.
The corresponding values for `C[C@@H](Oc1c(N)ncc2c(-c3ccc(N4CCN(C)CC4)cc3)coc12)c1c(Cl)ccc(F)c1Cl` [Example 86, 7-[(R)-1-(2,6-Dichloro-3-fluor-phenyl)ethoxy]-3-[4-(4-methylpiperazin-1-yl)-phenyl]furo[3,2-c]pyridin-6-ylamine] are less than 500 nM and less than 500 nM.
As for `C[C@@H](Oc1c(N)ncc2c(C3=CCN(C(=O)[C@@H]4C[C@@H](F)CN4)CC3)coc12)c1c(Cl)ccc(F)c1Cl` [Example 235, (4-{6-Amino-7-[(R)-1-(2,6-dichloro-3-fluorophenyl)ethoxy]-furo[3,2-c]pyridin-3-yl}-3,6-dihydro-2H-pyridin-1-yl)-((2S,4R)-4-fluoropyrrolidin-2-yl)-methanone], the IC50 on MET (human) and at RON (human) was less than 500 nM in each case.
For `C[C@H](Oc1c(N)ncc2c(-c3cnn(C4CCNCC4)c3)coc12)c1ccccn1` [Example 395, 3-(1-Piperidin-4-yl-1H-pyrazol-4-yl)-7-((S)-1-pyridin-2-yl-ethoxy)furo[3,2-c]pyridin-6-ylamine], the IC50 on MET (human) and on RON (human) was 500 to 5000 nM in each case.
For `C[C@@H](Oc1c(N)ncc2c(C3=CCN(C(=O)NC(C)(C)C)CC3)coc12)c1c(Cl)ccc(F)c1Cl` [Example 148, 4-{6-Amino-7-[(1R)-1-(2,6-dichloro-3-fluorophenyl)ethoxy]furo[3,2-c]pyridin-3-yl}-N-tert-butyl-3,6-dihydropyridine-1(2H)-carboxamide], the IC50 is less than 500 nM on MET (human) and 500 to 5000 nM on RON (human).
For `CC(Oc1c(N)ncc2c(-c3cnn(C4CCNCC4)c3)coc12)c1cccc(Cl)c1` (stereo not shown) [Example 385, 7-[1-(3-Chlorophenyl)ethoxy]-3-(1-piperidin-4-yl-1H-pyrazol-4-yl)furo[3,2-c]pyridin-6-ylamine], in that order: less than 500 nM and 500 to 5000 nM.
The corresponding values for `COc1cc(Cl)cc(Cl)c1C(C)Oc1c(N)ncc2c(-c3cnn(C4CCNCC4)c3)coc12` (stereo not shown) [Example 360, 7-[1-(2,4-Dichloro-6-methoxyphenyl)ethoxy]-3-(1-piperidin-4-yl-1H-pyrazol-4-yl)furo[3,2-c]pyridin-6-ylamine] are less than 500 nM and 500 to 5000 nM.
The corresponding values for `C[C@@H](Oc1c(N)ncc2c(-c3cccc(C(=O)N4CCN(CCO)CC4)c3)coc12)c1c(Cl)ccc(F)c1Cl` [Example 98, (3-{6-Amino-7-[(R)-1-(2,6-dichloro-3-fluorophenyl)ethoxy]-furo[3,2-c]pyridin-3-yl}phenyl)-[4-(2-hydroxyethyl)piperazin-1-yl]methanone] are less than 500 nM and 500 to 5000 nM.
For the compound `CC(Oc1c(N)ncc2c(-c3cnn(C4CCNCC4)c3)coc12)c1c(Cl)c(F)cc(OC2CCNCC2)c1Cl` (stereo not shown) [Example 158, 7-{1-[2,6-Dichloro-3-fluoro-5-(piperidin-4-yloxy)phenyl]ethoxy}-3-[1-(piperidin-4-yl)-1H-pyrazol-4-yl]furo[3,2-c]pyridin-6-amine], the IC50 on MET (human) and on RON (human) was less than 500 nM throughout.

(Values after patent US8022206B2 (OSI Pharmaceuticals, LLC, priority 2008, dated 2011).)
